Article PMC11642889, “Structure-Based Screening and Optimization of PafA Inhibitors with Potent Anti-Tuberculosis Activity” (International Journal of Molecular Sciences, 2024)

Biological target: Mtb PafA (Mycobacterium tuberculosis, UniProt P9WNU7)
Experiment: fluorescent pupylation assay of PanB with 5-carboxyfluorescein-cys-Pup^E
Format: biochemical

Sequence of Mtb PafA (P9WNU7 whole entry, looked up): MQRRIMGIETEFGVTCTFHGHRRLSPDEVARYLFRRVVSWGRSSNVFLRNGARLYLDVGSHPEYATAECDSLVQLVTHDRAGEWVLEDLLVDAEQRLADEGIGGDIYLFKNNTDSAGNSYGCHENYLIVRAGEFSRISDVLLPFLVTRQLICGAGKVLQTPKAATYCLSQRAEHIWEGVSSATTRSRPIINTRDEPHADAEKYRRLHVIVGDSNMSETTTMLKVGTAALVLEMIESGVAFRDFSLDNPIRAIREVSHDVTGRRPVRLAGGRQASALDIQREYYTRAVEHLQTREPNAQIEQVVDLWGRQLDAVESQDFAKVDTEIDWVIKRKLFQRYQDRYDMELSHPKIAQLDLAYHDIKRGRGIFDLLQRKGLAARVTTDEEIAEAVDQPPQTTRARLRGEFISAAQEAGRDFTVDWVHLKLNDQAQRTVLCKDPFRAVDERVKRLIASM

## NS(=O)(=O)c1ccc(NC(=S)NCCc2ccc(F)cc2)cc1 [Pi-2-26]
  IC50: 46.2 ± 7.96 nM
